Experimental data published in patent US20220412957A1, “METHODS OF TREATING CANCER PATIENTS WITH RAS NODE OR RTK TARGETED THERAPEUTIC AGENTS” (Celcuity Inc., priority 2019, published 2022).

Tests used:
Assay type in all cases: cell-based, human
[1] = test system: LPA1-initiated signaling in HER2-negative/PI3K//ERK/MEK/RAF/mTOR Wild-Type breast tumor cell samples; assay: impedance biosensor cell adhesion test, LPA1 agonist with RAS node inhibitors (Example 4); parameters: unit not given here
Excerpt: Tissue and cell samples: 28 HER2-negative/PI3K//ERK/MEK/RAF/mTOR Wild-Type breast tumor cell samples were studied. […] From these responses, the net amount of LPA1-initiated signaling involving PI3K-α, Class 1 PI3K-isoforms (pan-PI3K), Class 1 PI3K-isoforms and mTOR, Bcl-xL and Bcl-2, MEK, ERK, and RAF, individually and in combination, was quantified.
In this example, 14 of the 28 patient cell samples tested recorded output values with at least one of the targeted therapeutic(s) above 250. […] Five patients would be selected to receive treatment with gedatolisib, four would be selected to receive treatment with copanlisib, one patient would be selected to receive treatment with PLX7904, six patients would be selected to receive treatment with gedatolisib and PLX7904, seven patients would be selected to receive treatment with gedatolisib and ravoxertinib, nine patients would be selected to receive treatment with gedatolisib and trametinib, and 14 patients would be selected to receive treatment with gedatolisib and navitoclax.

[2] = test system: S1P-initiated signaling in HER2-negative/PI3K wild-type breast tumor cell samples; assay: impedance biosensor cell adhesion test, S1P agonist with HER2 inhibitor (Example 2); parameters: scale not given here
Excerpt: (§1) Tissue and cell samples: Eighteen HER2-negative/PI3K wild-type breast tumor cell samples were studied.
(§2) In this example, four of the eighteen patient cell samples tested recorded output values with the targeted therapeutic, neratinib, above 500. These four patients would thus be selected to receive treatment with neratinib, even though they are HER2-negative.

[3] = test system: LPA1-initiated signaling in HER2-negative/PI3K wild-type breast tumor cell samples; assay: impedance biosensor cell adhesion test, LPA1 agonist with HER2 inhibitor (Example 2); parameters: scale not given here
Excerpt: as §1, §2

[4] = sample C1838.01.155, cut-off 250
[5] = sample C1986.01.10, cut-off 250
[6] = sample C2090.01.14, cut-off 250
[7] = sample C2169.01.10, cut-off 250
[8] = sample C3091.01.13, cut-off 250
[9] = sample C3132.01.13, cut-off 250
[10] = sample C3311.01.10, cut-off 250
[11] = sample CL021.01.869, cut-off 250

Work on `COc1c(OCCCN2CCOCC2)ccc2c1N=C(NC(=O)c1cnc(N)nc1)N1CCN=C21` [Copanlisib, copanlisib] yielded an output value ([1]; sample C1816.01.6, cut-off 250) of 374, an output value [1, 4] of 10 and an output value ([1]; sample C1918.01.5, cut-off 250) of 113. For the same compound, the output value [1, 5] was 170, the output value [1, 6] was 103 and the output value ([1]; sample C2167.01.4, cut-off 250) was 67. It also gave an output value [1, 7] of 199, an output value ([1]; sample C2483.01.6, cut-off 250) of 113 and an output value ([1]; sample C2693.01.2, cut-off 250) of 46. For the same compound, the output value ([1]; sample C2697.01.4, cut-off 250) was 103, the output value ([1]; sample C2729.01.4, cut-off 250) was 72 and the output value ([1]; sample C2748.01.4, cut-off 250) was 55. It also gave an output value ([1]; sample C2792.01.2, cut-off 250) of 98, an output value ([1]; sample C2794.01.9, cut-off 250) of 14 and an output value ([1]; sample C2868.01.6, cut-off 250) of 58. For the same compound, the output value ([1]; sample C2991.01.7, cut-off 250) was 310, the output value [1, 8] was 156 and the output value ([1]; sample C3101.01.6, cut-off 250) was 70. It also gave an output value [1, 9] of 38, an output value [1, 10] of 430 and an output value ([1]; sample C3337.01.6, cut-off 250) of 240. The output value ([1]; sample C3377.01.2, cut-off 250) was 86, the output value ([1]; sample C3507.01.5, cut-off 250) was 94 and the output value ([1]; sample C3730.01.9, cut-off 250) was 511. It also gave an output value ([1]; sample C3873.01.4, cut-off 250) of 199, an output value ([1]; sample C3957.01.6, cut-off 250) of 53 and an output value ([1]; sample C4005.01.2, cut-off 250) of 125. For the same compound, the output value [1, 11] was −259.

`C[C@H](Nc1ccc2c(c1)OCCn1cc(N3C(=O)OC[C@H]3C(F)F)nc1-2)C(N)=O` [GDC-0077] showed an output value ([1]; sample C1816.01.6, cut-off 250) of −22, an output value [1, 4] of 38 and an output value ([1]; sample C1918.01.5, cut-off 250) of 38. The output value [1, 5] was 62, the output value [1, 6] was 36 and the output value ([1]; sample C2167.01.4, cut-off 250) was −12. For the same compound, the output value [1, 7] was 34, the output value ([1]; sample C2483.01.6, cut-off 250) was 113 and the output value ([1]; sample C2693.01.2, cut-off 250) was −24. It also gave an output value ([1]; sample C2697.01.4, cut-off 250) of 31, an output value ([1]; sample C2729.01.4, cut-off 250) of 34 and an output value ([1]; sample C2748.01.4, cut-off 250) of 65. It also gave an output value ([1]; sample C2792.01.2, cut-off 250) of 43, an output value ([1]; sample C2794.01.9, cut-off 250) of −89 and an output value ([1]; sample C2868.01.6, cut-off 250) of −24. The output value ([1]; sample C2991.01.7, cut-off 250) was 55, the output value [1, 8] was 60 and the output value ([1]; sample C3101.01.6, cut-off 250) was 0. It also gave an output value [1, 9] of 0, an output value [1, 10] of 14 and an output value ([1]; sample C3337.01.6, cut-off 250) of 139. The output value ([1]; sample C3377.01.2, cut-off 250) was −161, the output value ([1]; sample C3507.01.5, cut-off 250) was −58 and the output value ([1]; sample C3730.01.9, cut-off 250) was −113. For the same compound, the output value ([1]; sample C3873.01.4, cut-off 250) was 122, the output value ([1]; sample C3957.01.6, cut-off 250) was −10 and the output value ([1]; sample C4005.01.2, cut-off 250) was −12. The output value [1, 11] was −466.

In the case of `CCOc1cc2ncc(C#N)c(Nc3ccc(OCc4ccccn4)c(Cl)c3)c2cc1NC(=O)/C=C/CN(C)C` [Neratinib, neratinib], the output value ([2]; sample C125, cut-off 500) is reported as −19, the output value ([2]; sample C129, cut-off 500) is reported as 48 and the output value ([2]; sample C133, cut-off 500) is reported as 65. For the same compound, the output value ([2]; sample C148, cut-off 500) was −11, the output value ([2]; sample C152, cut-off 500) was 198 and the output value ([2]; sample C197, cut-off 500) was 313. The output value ([2]; sample C199, cut-off 500) was 283, the output value ([2]; sample C201, cut-off 500) was −12 and the output value ([2]; sample C213, cut-off 500) was 41. It also gave an output value ([2]; sample C219, cut-off 500) of −48, an output value ([2]; sample C223, cut-off 500) of 284 and an output value ([2]; sample C230, cut-off 500) of 289. It also gave an output value ([2]; sample C251, cut-off 500) of 16, an output value ([2]; sample C270, cut-off 500) of 301 and an output value ([2]; sample C276, cut-off 500) of 11. For the same compound, the output value ([2]; sample C307, cut-off 500) was 41, the output value ([2]; sample C371, cut-off 500) was 270 and the output value ([2]; sample C434, cut-off 500) was −1. It also gave an output value ([3]; sample C125, cut-off 500) of 54, an output value ([3]; sample C129, cut-off 500) of 247 and an output value ([3]; sample C133, cut-off 500) of 161. For the same compound, the output value ([3]; sample C148, cut-off 500) was 38, the output value ([3]; sample C152, cut-off 500) was 482 and the output value ([3]; sample C197, cut-off 500) was 590. The output value ([3]; sample C199, cut-off 500) was 296, the output value ([3]; sample C201, cut-off 500) was 110 and the output value ([3]; sample C213, cut-off 500) was 42. For the same compound, the output value ([3]; sample C219, cut-off 500) was 92, the output value ([3]; sample C223, cut-off 500) was 666 and the output value ([3]; sample C230, cut-off 500) was 506. For the same compound, the output value ([3]; sample C251, cut-off 500) was 106, the output value ([3]; sample C270, cut-off 500) was 962 and the output value ([3]; sample C276, cut-off 500) was 166. It also gave an output value ([3]; sample C307, cut-off 500) of 38, an output value ([3]; sample C371, cut-off 500) of 460 and an output value ([3]; sample C434, cut-off 500) of 35.
